Experiments:
[1] = Metabolite profiling of pooled human plasma after repeat oral dosing of Compound 1 (HPLC/UV/MS); conditions: for Plasma Extracts: Compound 1 120 mg oral BID, Day 28, HPLC/UV/MS; for observed as major or minor metabolite in human plasma: Compound 1 120 mg BID, Day 28
[2] = tested on: rat hepatocytes; experiment: In vitro metabolism of Compound 2 in rat cryopreserved hepatocytes; format: in vitro ADME; design: key to Relative abundance of metabolite of Compound 2, Rat: ND Not detected.; trace: Trace: observed by HPLC/MS measurements only.; + Minor as assessed by HPLC/UV measurements; ++ moderate as assessed by HPLC/UV measurements; +++ major as assessed by HPLC/UV measurements.; * m/z 593 and m/z 505 co-eluted in rabbit hepatocytes.; ** m/z 591 c and m/z 593 were merged in human hepatocytes and Hepatopack.; *** m/z 607 and m/z 751 b were merged in rabbit hepatocytes; conditions: for metabolite of Compound 2 observed in rat hepatocyte incubations: 10 μM Compound 2, 7.5×10^5 cells/mL, 1 and 4 hrs composite; for Relative abundance of metabolite of Compound 2, Rat: rat cryopreserved hepatocytes, HPLC/UV/MS
Description: (§1) Male CD-1 mouse hepatocytes (lot YHL), male Wistar-Han rat hepatocytes (Celsius; product number: M000065; lot: SLA), female New Zealand rabbit hepatocytes (lot 1510147), male cryopreserved cynomolgus monkey hepatocytes (Celsius; product number: M00305; lot: DNB) and mixed-gender cryopreserved human hepatocytes (Bioreclamation; product number: S01988; lot: DCM) were obtained for the hepatocyte in-vitro assessments.
(§2) At time 0 hrs 550 μL aliquots were removed from incubations and quenched with 5 volumes of ACN containing 0.1% formic acid. At 1 and 4 hrs, 275 μL aliquots were removed and quenched as above; these were combined in the same tube to prepare a composite sample. For all hepatocyte experiments, samples were processed by centrifugation at 1900×g for 5 minutes, and then the supernatant was transferred to clean glass tubes and evaporated to dryness under a stream of N2 using a Turbovap at 37° C. Sample residues were reconstituted in mobile phase prior to analysis by HPLC/UV/MS^n.
(§3) Samples were analyzed by HPLC/UV/MS^n using a Thermo Orbitrap Elite mass spectrometer in conjunction with a Thermo Open Accela UHPLC system. A 3.0×150 mm, 2.5 μm Acquity CSH C18 HPLC column (Waters) was heated to 45° C. for separation of analytes. The mobile phase was a gradient of A): water containing 0.1% formic acid, and B): acetonitrile. The flow rate was 450 μL/min, and the following gradient program was utilized: […]
(§4) UV absorbance was monitored with a photo-diode array detector from 220-450 nm. The mass spectrometer was operated in positive-ion mode with a HESI ion source at a potential of 3.0 kV, and capillary and source heater temperatures of 380 and 300° C., respectively. Sheath, auxiliary, and sweep gas flows were set to 45, 10, and 2 units, respectively. Full scan mass spectra were acquired over the range 120-1200 m/z at a resolving power of 30,000 (specified at m/z 400). Data-dependent MS^n spectra were acquired in an automated fashion at 15,000 resolving power using CID and HCD fragmentation with normalized collision energy settings of 28 and 65 V, respectively.
(§5) Metabolites were characterized by comparisons of mass spectral fragmentation patterns with that of a Compound 2 standard. All HPLC/UV/MS^n data were processed using Xcalibur v. 2.2, and integrated UV peak areas were subjected to weighted UV binning procedures utilizing an Excel template.

[3] = tested on: monkey hepatocytes; experiment: In vitro metabolism of Compound 2 in monkey cryopreserved hepatocytes; format: in vitro ADME, cynomolgus monkey; design: key to Relative abundance of metabolite of Compound 2, Monkey: ND Not detected.; trace: Trace: observed by HPLC/MS measurements only.; + Minor as assessed by HPLC/UV measurements; ++ moderate as assessed by HPLC/UV measurements; +++ major as assessed by HPLC/UV measurements.; * m/z 593 and m/z 505 co-eluted in rabbit hepatocytes.; ** m/z 591 c and m/z 593 were merged in human hepatocytes and Hepatopack.; *** m/z 607 and m/z 751 b were merged in rabbit hepatocytes; conditions: for metabolite of Compound 2 observed in monkey hepatocyte incubations: 10 μM Compound 2, 7.5×10^5 cells/mL, 1 and 4 hrs composite
Description: as §1, §2, §3, §4, §5

[4] = tested on: human hepatocytes; experiment: In vitro metabolism of Compound 2 in human cryopreserved hepatocytes; format: in vitro ADME; design: key to Relative abundance of metabolite of Compound 2, Human: ND Not detected.; trace: Trace: observed by HPLC/MS measurements only.; + Minor as assessed by HPLC/UV measurements; ++ moderate as assessed by HPLC/UV measurements; +++ major as assessed by HPLC/UV measurements.; * m/z 593 and m/z 505 co-eluted in rabbit hepatocytes.; ** m/z 591 c and m/z 593 were merged in human hepatocytes and Hepatopack.; *** m/z 607 and m/z 751 b were merged in rabbit hepatocytes; conditions: for metabolite of Compound 2 observed in human hepatocyte incubations: 10 μM Compound 2, 7.5×10^5 cells/mL, 1 and 4 hrs composite
Description: as §1, §2, §3, §4, §5

[5] = tested on: rabbit hepatocytes; experiment: In vitro metabolism of Compound 2 in rabbit cryopreserved hepatocytes; format: in vitro ADME; design: key to Relative abundance of metabolite of Compound 2, Rabbit: ND Not detected.; trace: Trace: observed by HPLC/MS measurements only.; + Minor as assessed by HPLC/UV measurements; ++ moderate as assessed by HPLC/UV measurements; +++ major as assessed by HPLC/UV measurements.; * m/z 593 and m/z 505 co-eluted in rabbit hepatocytes.; ** m/z 591 c and m/z 593 were merged in human hepatocytes and Hepatopack.; *** m/z 607 and m/z 751 b were merged in rabbit hepatocytes; conditions: for metabolite of Compound 2 observed in rabbit hepatocyte incubations: 10 μM Compound 2, 7.5×10^5 cells/mL, 1 and 4 hrs composite
Description: as §1, §2, §3, §4, §5

[6] = tested on: mouse hepatocytes; experiment: In vitro metabolism of Compound 2 in mouse cryopreserved hepatocytes; format: in vitro ADME; design: key to Relative abundance of metabolite of Compound 2, Mouse: ND Not detected.; trace: Trace: observed by HPLC/MS measurements only.; + Minor as assessed by HPLC/UV measurements; ++ moderate as assessed by HPLC/UV measurements; +++ major as assessed by HPLC/UV measurements.; * m/z 593 and m/z 505 co-eluted in rabbit hepatocytes.; ** m/z 591 c and m/z 593 were merged in human hepatocytes and Hepatopack.; *** m/z 607 and m/z 751 b were merged in rabbit hepatocytes; conditions: for metabolite of Compound 2 observed in mouse hepatocyte incubations: 10 μM Compound 2, 7.5×10^5 cells/mL, 1 and 4 hrs composite
Description: as §1, §2, §3, §4, §5

Row | Compound | Plasma Extracts [1] | observed as major or minor metabolite in human plasma [1] | metabolite of Compound 2 observed in rat hepatocyte incubations [2] | metabolite of Compound 2 observed in monkey hepatocyte incubations [3] | metabolite of Compound 2 observed in human hepatocyte incubations [4] | metabolite of Compound 2 observed in rabbit hepatocyte incubations [5] | metabolite of Compound 2 observed in mouse hepatocyte incubations [6] | also measured
1 | N#Cc1ccc(COc2cccc(C3CCN(Cc4nc5ccc(C(=O)O)cc5n4C[C@@H]4CCO4)CC3)n2)c(F)c1 [Compound 1, 2-[(4-{6-[(4-Cyano-2-fluorobenzyl)oxy]pyridin-2-yl}piperidin-1-yl)methyl]-1-[(2S)-oxetan-2-ylmethyl]-1H-benzimidazole-6-carboxylic acid] | +++ |  |  |  |  |  |  | 
2 | N#Cc1ccc(COc2cccc(C(CCO)CCNCc3nc4ccc(C(=O)O)cc4n3C[C@@H]3CCO3)n2)c(F)c1 (stereo partly drawn) [Compound 574a, 2-(((3-(6-((4-cyano-2-fluorobenzyl)oxy)pyridin-2-yl)-5-hydroxypentyl)amino)methyl)-1-(((S)-oxetan-2-yl)methyl)-1H-benzo[d]imidazole-6-carboxylic acid] | + | minor metabolite |  |  |  |  |  | 
3 | N#Cc1ccc(COc2cccc(C3CCN(Cc4nc5ccc(C(=O)O)cc5n4CC(O)CCO)CC3)n2)c(F)c1 (stereo not drawn) [Compound 574b, 2-((4-(6-((4-cyano-2-fluorobenzyl)oxy)pyridin-2-yl)piperidin-1-yl)methyl)-1-(2,4-dihydroxybutyl)-1H-benzo[d]imidazole-6-carboxylic acid] | + | minor metabolite |  |  |  |  |  | 
4 | N#Cc1ccc(COc2cccc(C3CCNCC3)n2)c(F)c1 [Compound M3, 3-fluoro-4-(((6-(piperidin-4-yl)pyridin-2-yl)oxy)methyl)benzonitrile] | + | minor metabolite |  |  |  |  |  | 
5 | N#Cc1ccc(COc2cccc(C3(O)CCN(Cc4nc5ccc(C(=O)O)cc5n4C[C@@H]4CCO4)CC3)n2)c(F)c1 [Compound M4, (S)-2-((4-(6-((4-cyano-2-fluorobenzyl)oxy)pyridin-2-yl)-4-hydroxypiperidin-1-yl)methyl)-1-(oxetan-2-ylmethyl)-1H-benzo[d]imidazole-6-carboxylic acid] | + |  |  |  |  |  |  | 
6 | O=C(O)c1ccc2nc(CN3CCC(c4cccc(O)c4O)CC3)n(C[C@@H]3CCO3)c2c1 [Metabolite 438, (S)-2-((4-(2,3-dihydroxyphenyl)piperidin-1-yl)methyl)-1-(oxetan-2-ylmethyl)-1H-benzo[d]imidazole-6-carboxylic acid] |  |  | trace metabolite | trace metabolite | trace metabolite |  |  | Relative abundance of metabolite of Compound 2, Rat [2]: trace; Relative abundance of metabolite of Compound 2, Monkey ([3]; monkey cryopreserved hepatocytes, HPLC/UV/MS): trace; Relative abundance of metabolite of Compound 2, Human ([4]; human cryopreserved hepatocytes, HPLC/UV/MS): trace
7 | C[C@]1(c2ccc(Cl)cn2)Oc2cccc(C3CCN(Cc4nc5ccc(C(=O)O)cc5[nH]4)CC3)c2O1 [Metabolite 505, (S)-2-((4-(2-(5-chloropyridin-2-yl)-2-methylbenzo[d][1,3]dioxol-4-yl)piperidin-1-yl)methyl)-1H-benzo[d]imidazole-6-carboxylic acid] |  |  | observed |  |  | observed | observed | Relative abundance of metabolite of Compound 2, Rabbit ([5]; rabbit cryopreserved hepatocytes, HPLC/UV/MS): *; Relative abundance of metabolite of Compound 2, Rat [2]: trace; Relative abundance of metabolite of Compound 2, Mouse ([6]; mouse cryopreserved hepatocytes, HPLC/UV/MS): trace
8 | C[C@]1(c2ccc(Cl)cn2)Oc2cccc(C3=CCN(Cc4nc5ccc(C(=O)O)cc5n4C[C@@H]4CCO4)CC3)c2O1 [Metabolite 573a] |  |  | low-level metabolite | low-level metabolite | low-level metabolite | low-level metabolite | low-level metabolite | 
9 | C[C@]1(c2ccc(Cl)cn2)Oc2cccc(C3CC[N+]([O-])(Cc4nc5ccc(C(=O)O)cc5n4C[C@@H]4CCO4)CC3)c2O1 (stereo partly drawn) [Metabolite 591d] |  |  | observed in all hepatocyte incubations | observed in all hepatocyte incubations | observed in all hepatocyte incubations | observed in all hepatocyte incubations | observed in all hepatocyte incubations | 

Reference: US12065434B2, “Metabolites of GLP1R agonists” (Pfizer Inc., priority 2020, dated 2024)
